The values below come from US6511827B1 (Merck & Co., Inc., priority 1997, dated 2003).

What is called Kd is the concentration at which binding is half-saturated.

In assay [1] the test system is human GALR3. Put plainly: Specific binding of ^125I-galanin radioligands to membranes of COS-7 cells transfected with GALR3 clones, as a function of membrane protein. On the procedure:
Mammalian COS-7 cells were transfected by electroporation. COS-7 cells (1×10^7) were suspended in 0.85 ml of Ringers' buffer and […] of the GALR3-2 or GALR3—3 expression plasmid was added to a 0.4 mm electroporation cuvette (Bio-Rad, Hercules, Calif.). Current was applied ([…], 260 V) using a Bio-Rad Electroporator device and the cells were transferred to a T-180 flask (Corning). Expression was allowed to proceed for 72 hrs.
Membranes were prepared from transfected cells following dissociation in enzyme-free dissociation solution (Specialty Media, Lavallette, N.J.) by disruption in a Dounce homogenizer in ice-cold membrane buffer (10 mM Tris, pH 7.4, 10 mM PMSF, […], and […]). After a low speed (1100×g for 10 min. at 4° C.) and a high speed centrifugation (38,700×g for 15 min. at 4° C.), membranes were resuspended in buffer and protein concentration determined (Bio-Rad assay kit). […] Reactions were initiated by the addition of membranes and the incubation was allowed to proceed at room temperature for 1 hour. […] Titration of membrane protein from 1 to 50 μg was conducted. […] Incubations were terminated by rapid filtration through GF/C filters which had been presoaked with 0.1% polyethylamine using a TOMTEC (Orange, Conn.) cell harvester. The results were analyzed using the Prism software package (GraphPad, San Diego, Calif.).

Assay [2] has as its target galanin receptors. To be noted: hypothalamus, ventral hippocampus, basal forebrain, spinal cord, pancreas and pituitary; cited from earlier work.

Turning to ^125I-human galanin, the “Specific binding of radioligand” value is reported as 211 cpm in assay [1] (Clone GALR3-3, membrane protein 5 μg); 407 cpm in assay [1] (Clone GALR3-3, membrane protein 10 μg); 886 cpm in assay [1] (Clone GALR3-3, membrane protein 20 μg); 2061 cpm in assay [1] (Clone GALR3-3, membrane protein 50 μg).

As for ^125I-galanin, in assay [2], the Kd is approximately 1 nM.
